Source: patent US20040023314A1, “Mutant fibronectin and tumor metastasis” (Baylor College of Medicine, priority 2002, published 2004)

Tested on: 1143 mel tumor cells
Assay: Migration assay (matrigel)
Type: cell-based, human
Settings: 1143 mel cells stably expressing the construct, 48 h
Protocol: 2.5×10^4 1143 mel tumor cells and transfected tumor cells were seeded into the upper chamber with 0.75 ml of RPMI-1640 serum-free medium in BIOCOAT […] Cells (Becton Dickinson, San Jose, Calif.). The bottom chamber contained 0.75 ml of RPMI-1640 serum-free medium (control medium) or 0.75 ml of RPMI-1640/10% FCS (complete medium). After incubation at 37° C. and 5% CO2 for 48 h, Cells in the lower chambers were fixed in 4% formaldehyde in PBS at room temperature for 20 min, stained with crystal violet, and examined and counted from four different fields under a compound microscope.
The migratory ability of these cell lines expressing wild type or mutant FN was further evaluated. […] To rule out clonal variation, similar experiments were repeated with four sets of independent tumor cell clones expressing either wild-type, mutant FN or empty vector. […] The P-value for significant difference is 0.0007 among the two comparison groups of cell clones expressing mutant FN and other cell clones expressing either wild-type FN, empty vector. There were no statistically significant differences among groups of parental 1143 mel and its derivative clones expressing wild-type or empty vector.

Row | Substance | migration from chamber with control medium to chamber with complete medium
1 | mutant FN: mutated fibronectin with Glu to Lys substitution at position 2053 | enhanced migration ability
2 | wild-type FN: wild-type fibronectin | little or no migration
